# In patent publication EP4426265B1, “OPHTHALMIC COMPOSITION COMPRISING A LUBRICANT AGENT AND VERBASCOSIDE, AND SAID COMPOSITION FOR USE IN THE PREVENTIVE OR CURATIVE TREATMENT OF A CORNEAL EPITHELIAL DEFECT AND/OR A CONJUNCTIVAL DEFECT IN A SUBJECT” (NOVAX PHARMA S.A.M., priority 2021, dated 2023):
# Details: not told
row,SMILES,percentage average value (%av) of permeability
1,OB(O)O [Boric acid],0.9%
2,"C[C@@H]1O[C@@H](O[C@@H]2[C@@H](O)[C@H](OCCc3ccc(O)c(O)c3)O[C@H](CO)[C@H]2OC(=O)/C=C/c2ccc(O)c(O)c2)[C@H](O)[C@H](O)[C@H]1O [VERBASCOSIDE, Verbascoside]",not measurable
